In one assay the target is T1, orexin-2 receptor (Homo sapiens, UniProt O43614).
T1 construct: expressed in transfected cells; host or cells: CHO-K1 (preferred) or HEK-293 recombinant clones
T1 sequence (O43614 1-444): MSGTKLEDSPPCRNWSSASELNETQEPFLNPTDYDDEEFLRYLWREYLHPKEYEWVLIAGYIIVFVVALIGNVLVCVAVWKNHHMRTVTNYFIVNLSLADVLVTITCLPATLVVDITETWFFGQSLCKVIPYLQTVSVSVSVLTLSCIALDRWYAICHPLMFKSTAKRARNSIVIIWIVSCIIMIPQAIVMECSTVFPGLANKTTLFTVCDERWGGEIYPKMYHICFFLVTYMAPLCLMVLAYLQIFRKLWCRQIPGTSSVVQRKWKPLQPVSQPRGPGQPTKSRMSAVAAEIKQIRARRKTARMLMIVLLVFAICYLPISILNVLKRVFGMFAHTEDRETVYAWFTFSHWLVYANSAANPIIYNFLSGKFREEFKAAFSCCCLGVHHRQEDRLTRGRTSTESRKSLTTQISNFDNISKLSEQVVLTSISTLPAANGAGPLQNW
Briefly: Orexin radioligand binding assay (125I-orexin A, adherent recombinant cells). Conditions: 125I-orexin A displacement, recombinant CHO-K1 or HEK-293 cells expressing the orexin receptor. The method, then:
The reaction was quenched with 100 μL of 10% w/v bovine serum albumin, then the products were pre-purified using Waters Maxi-Clean C18 cartridges (Alltech, San Jose, Calif.). The mobile phase for the reverse phase separations (pre-purification and gradient HPLC) was 0.1% TFA, and the eluent was 0.1% TFA in acetonitrile. After removing the acetonitrile from the Maxi-Clean cartridge eluent by lyophilization, the labeled compound was further purified by gradient HPLC using a Vydac (Hesperia, Calif.) analytical C18 HPLC column. A gradient of 2% acetonitrile/min was used and fractions were collected every 0.75 min at a flow rate of 1.5 mL/min.
Radioligand binding assays were performed in opaque, white 96-well tissue culture plates pretreated with poly-D-lysine (Bio-Coat plates, Becton Dickinson, Franklin Lakes, N.J.). Cells expressing the orexin receptor were seeded at 30,000 cells/well in 100 μL/well Ham's F12 with 10% heat inactivated fetal bovine serum, penicillin/streptomycin and 800 mg/L G418. […] In preparation for the binding assay, the cell culture medium was aspirated away, and the cells were gently washed with 100 μL-well binding buffer (Dulbecco's phosphate buffered saline containing 0.1% w/v bovine serum albumin). […] The assay was terminated by aspirating the liquid from the wells, washing the wells with iced binding buffer, aspirating the wells dry, adding 50 μL/well scintillation cocktail (MicroScint 40, Packard Biosciences, Meriden Conn.), and counting the plate(s) in a Packard TopCount scintillation counter. […] Data were analyzed using GraphPad Prizm software to calculate Ki values.

The target of assay [1] is T2, orexin receptors in PFSK-1 cells (Homo sapiens, UniProt O43614).
T2 construct: host or cells: PFSK-1
T2 sequence (O43614 1-444): T1 sequence (O43614 1-444)
Description: Intracellular calcium ion measurement (FLIPR, Fluo-3 AM) in PFSK-1 cells, antagonism of orexin agonist. The format is cell-based. The method, then: PFSK-1 cells were obtained from the American Type Culture Collection (CRL-2060; Manassas, Va.) and cultured as described by Fults et al. (J. Neuropathology Exp. Neurology, 1992, 51 (3):272-280). Cells were grown on 10 or 15 cm tissue culture dishes (Corning Inc., Corning, N.Y.) in RPMI medium 1640 containing 25 mM Hepes and L-glutamine (Gibco/InVitrogen, Carlsbad, Calif.) supplemented with 10% fetal bovine serum (HyClone, Logan, Utah), 50 u/mL penicillin G, and 50 u/mL streptomycin sulphate. Cells grown on 10 dishes were grown in 10 mL complete medium, and cells grown on 15 cm dishes were grown in 30 mL complete medium. Cells were passed every 3 to 5 days at a 1:5 dilution by aspirating away the medium, adding 2 mL/dish Gibco/Invitrogen Trypsin-EDTA solution, aspirating away the solution, incubating at room temperature 5 min, and dispersing the cells into fresh plates using fresh complete medium. Cells were then maintained in incubators set to maintain 37° C. and 5% CO2.
Agonist binding of orexin receptors elevates the intracellular free calcium ion concentration through the activation of a Gq protein and the opening of voltage-activated plasmalemmal calcium channels (see: A. N. Van Den Pol et al. J. Neurosci., 1998, 18(19):7962-7971). This effect was monitored using the fluorescent Ca^++ indicator Fluo-3 AM (TefLabs, Austin, Tex.) and the Molecular Devices (Sunnyvale, Calif.) FLIPR instrument.
PFSK-1 cells were removed from confluent tissue culture dishes with trypsin-EDTA as described above and plated in 96-well Packard Viewplates (Meriden, Conn.) at 50,000 cells/well in 100 μL/well complete medium. The next day the cells, which adhered to the Viewplates and grew to confluency, were loaded with the fluorescent dye. […] Test compounds were added to the wells in an isotonic, pH-neutral vehicle, such as Dulbecco's phosphate-buffered saline, and changes in intracellular calcium concentrations were measured using the FLIPR instrument.
The compounds were delivered to the test wells, and the compounds and the cells were incubated to allow binding. […] The control column for the antagonist screen included positive and negative controls to indicate the fluorescence of a full agonist response and the baseline.
Antagonism was analyzed by calculating KB and pKB values for compounds found to inhibit increases in intracellular Ca^++ concentrations of PFSK-1 cells. This was accomplished by determining the EC50 of orexin B and comparing the IC50 values determined from dilutions of antagonist compound(s), all on a single 96-well Viewplate of PFSK-1 cells loaded with Fluo-3 AM. […] The KB is then determined after Y.-C. […]
On the technique in general: A change in cytosolic calcium serves as a functional read-out for many receptors and channels.

The term Ki denotes a measure of affinity in units of concentration, obtained from inhibition or displacement. The term Kb denotes the equilibrium dissociation constant of an antagonist, usually derived from a functional assay.

As for `CC1(C)OC[C@H](NC(=O)Nc2ccc(Br)cc2Cl)[C@H](c2ccccc2)O1` [Example 1, 1-(4-Bromo-2-chloro-phenyl)-3-((4S,5S)-2,2-dimethyl-4-phenyl-[1,3]dioxan-5-yl)-urea], at orexin-2 receptor, the Ki stood at 9 nM. Also, the Kb in assay [1] is 25.1 nM.
With `CC1(C)OC[C@H](NC(=O)Nc2ccc(Br)cc2Br)[C@H](c2ccccc2)O1` [Example 4, 1-(2,4-Dibromo-phenyl)-3-((4S,5S)-2,2-dimethyl-4-phenyl-[1,3]dioxan-5-yl)-urea], the Ki on orexin-2 receptor was determined as 10 nM. In assay [1], the Kb is 5.01 nM.
On the same counts, the results for `CC1(C)OC[C@H](NC(=O)Nc2ccc(Cl)cc2Cl)[C@H](c2ccccc2)O1` [Example 5, 1-(2,4-Dichloro-phenyl)-3-((4S,5S)-2,2-dimethyl-4-phenyl-[1,3]dioxan-5-yl)-urea] are 15 nM and 25.1 nM.
As for `Cc1ccc(NC(=O)N[C@H]2COC(C)(C)O[C@H]2c2ccccc2)c(Br)c1` [Example 12, 1-(2-Bromo-4-methyl-phenyl)-3-((4S,5S)-2,2-dimethyl-4-phenyl-[1,3]dioxan-5-yl)-urea], the Ki at orexin-2 receptor amounted to 5 nM. Moreover, in assay [1], the Kb is 6.31 nM.
On to `COC(=O)c1ccccc1NC(=O)N[C@H]1COC(C)(C)O[C@H]1c1ccccc1` [Example 40, 2-[3-((4S,5S)-2,2-Dimethyl-4-phenyl-[1,3]dioxan-5-yl)-ureido]-benzoic acid methyl ester], for which the Ki on orexin-2 receptor was determined as 1200 nM.
Consider `CC1(C)OC[C@H](NC(=O)Nc2ccccc2C(=O)O)[C@H](c2ccccc2)O1` [Example 41, 2-[3-((4S,5S)-2,2-Dimethyl-4-phenyl-[1,3]dioxan-5-yl)-ureido]-benzoic acid], for which, on orexin-2 receptor, the Ki came out at 710 nM.
The same measure, in the same setting: under `CC(C)c1ccccc1NC(=O)N[C@H]1COC(C)(C)O[C@H]1c1ccccc1` [Example 42, 1-((4S,5S)-2,2-Dimethyl-4-phenyl-[1,3]dioxan-5-yl)-3-(2-isopropyl-phenyl)-urea] stands 2900 nM; under `CC1(C)OC[C@H](NC(=O)Nc2c(Cl)cccc2Cl)[C@H](c2ccccc2)O1` [Example 43, 1-(2,6-Dichloro-phenyl)-3-((4S,5S)-2,2-dimethyl-4-phenyl-[1,3]dioxan-5-yl)-urea], 5000 nM.
On the same count and under the same terms, under `CC1(C)OC[C@H](NC(=O)Nc2cccc(Br)c2)[C@H](c2ccccc2)O1` [Example 44, 1-(3-Bromo-phenyl)-3-((4S,5S)-2,2-dimethyl-4-phenyl-[1,3]dioxan-5-yl)-urea] stands 3800 nM; under `CC1(C)OC[C@H](NC(=O)Nc2ccc(F)cc2F)[C@H](c2ccccc2)O1` [Example 45, 1-(2,4-Difluoro-phenyl)-3-((4S,5S)-2,2-dimethyl-4-phenyl-[1,3]dioxan-5-yl)-urea], 6000 nM; under `CC1(C)OC[C@H](NC(=O)Nc2cccc(Cl)c2)[C@H](c2ccccc2)O1` [Example 46, 1-(3-Chloro-phenyl)-3-((4S,5S)-2,2-dimethyl-4-phenyl-[1,3]dioxan-5-yl)-urea], 2000 nM.

Source of the values: US6951882B2, “Substituted 4-phenyl-[1,3]-dioxanes” (Janssen Pharmaceutica N.V., priority 2002, dated 2005).
